How the values were obtained:
[1] = tested on: arteriosclerotic lesions induced by the diet in the rabbit; assay: Antiarteriosclerotic activity (procedure of C.T. Cahn, diet-induced lesions); type: in vivo; settings: compound given together with the diet, end of a 12 week treatment
Procedure: The antiarteriosclerotic activity was tested according to the procedure described by C.T. Cahn, Circul. Research, 43, 115, 1975. The procedure consists in verifying any protecting actions of a drug on arteriosclerotic lesions induced by the diet in the rabbit.

[2] = target: collagenase from Clostridium Histolyticum; assay: Collagenase inhibiting activity (method of Appel, substrate N-carbobenzoxy-pro-gly-gly-L-pro-L-alanine); type: biochemical; settings: collagenase type II (Sigma), collagen synthetic peptide substrate
Procedure: The proteolytic activity of collagenase from Clostridium Histolyticum (Sigma, type II) was dosed according to the method by Appel (Method in enzymatic analysis, H.U. Bergmayer Vol. 2, pp. 1058-1063; 1978) using the collagen synthetic peptide N-carbobenzoxy-pro-gly-gly-L-pro-L-alanine as the substrate.

SMILES: CC(C)C(SC(=O)c1cccs1)C(=O)NC1CCSC1=O (stereo not drawn) [MR-2047, N-[(2-thenoylmercapto-3-methyl)-butanoyl]-homocysteine thiolactone]
- cholesterol levels [1]: significant reduction
- collagen levels in the connective tissue of the aorta intima [1]: significant reduction
- elastin levels in the connective tissue of the aorta intima [1]: significant reduction
- triglyceride levels [1]: significant reduction
- IC50 ([2]; read-out: IC₅₀): ~2000 nM

SMILES: CC(SC(=O)c1cccs1)C(=O)NC1CCSC1=O (stereo not drawn) [MR-889, 2-(2-Thenoylthio)-N-(2',3',4',5'-tetrahydro-2'-keto-thiophen-3'-yl)propionyl amide, reference compound]
- inhibiting activity [2]: almost no inhibiting activity

Source: patent EP0557303B1, “N- (2-THENOYLMERCAPTO-3-METHYL)-BUTANOYL]-HOMOCYSTEINE THIOLACTONE, A PROCESS FOR THE PREPARATION THEREOF AND PHARMACEUTICAL COMPOSITIONS CONTAINING IT” (priority 1990, dated 1992)
